# Earlier results in patent US20250114335A1, “METHODS AND COMPOSITIONS FOR THE TREATMENT OF EPILEPSY” (ARIZONA BOARD OF REGENTS ON BEHALF OF THE UNIVERSITY OF …, priority 2022, published 2025).
# Assays:
# [1] = test system: B6-D/+ (Scn8a-N1768D) adult mice; conditions: CBD-treated B6-D/+ males, comparison; cited from earlier work
# [2] = test system: B6-D/D (Scn8a-N1768D) juvenile mice; conditions: CBD-treated B6-D/D males, comparison; cited from earlier work
smiles,measurement,setting,value
C=C(C)[C@@H]1CCC(C)=C[C@H]1c1c(O)cc(CCCCC)cc1O [CBD],"standard effect size, survival",[1],0.50
same,"standard effect size, survival",[2],0.35
